In patent US11820773B2, “Tricyclic compounds” (ALIGOS THERAPEUTICS, INC., priority 2020, dated 2023):

system: HBV; test: HBV-DNA antiviral assay using HepG2.117 cells (intracellular HBV DNA by qPCR); assay type: cell-based, genotype D HBV; details: Hepatitis B virus, 72 h, HBV DNA inhibition, 3 days incubation, 2% DMSO
Outline: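 HepG2.117 cells (stable genotype D HBV, Tet-off) seeded without doxycycline, treated next day with 9-point 4-fold dilutions in 2% DMSO for 3 days at 37° C. Intracellular HBV DNA quantified by qPCR against a standard curve; viability by CellTiter-Glo ATP. EC50, EC90, CC50 from variable-slope dose-response fits versus DMSO control.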

**Q.** With `Cc1nn[nH]c1-c1ccc(-n2c(=O)c3c(n4ncc(CC(C)C)c24)CN(C(=O)c2ccc(Cl)c(C(F)(F)F)c2)[C@H](C)C3)cc1` (stereo in doubt) [Compound 63a, rac-(11R)-12-[4-chloro-3-(trifluoromethyl)benzoyl]-5-isobutyl-11-methyl-7-[4-(4-methyl-1H-triazol-5-yl)phenyl]-2,3,7,12-tetrazatricyclo[7.4.0.0^2,6]trideca-1(9),3,5-trien-8-one] as the molecule, how does the EC50 read?
**A.** The EC50 was less than 50 nM.

**Q.** For `C[C@H]1Cc2c(n3ncc(CC4CC4)c3n(-c3ccc(-c4nncn4C)cc3)c2=O)CN1C(=O)c1ccc(Br)c(C(F)(F)F)c1` (stereo in doubt) [Compound 40b, rac-(11S)-12-[4-bromo-3-(trifluoromethyl)benzoyl]-5-(cyclopropylmethyl)-11-methyl-7-[4-(4-methyl-1,2,4-triazol-3-yl)phenyl]-2,3,7,12-tetrazatricyclo[7.4.0.0^2,6]trideca-1(9),3,5-trien-8-one], which EC50 is on record?
**A.** The EC50 was 50 to 500 nM.

**Q.** With `CNC(=O)c1cc(-n2c(=O)c3c(n4ncc(Cc5ccccc5)c24)CN(C(=O)c2ccc(Br)c(C(F)(F)F)c2)CC3)nn1C` [Compound 29, 5-[5-benzyl-12-[4-bromo-3-(trifluoromethyl)benzoyl]-8-oxo-2,3,7,12-tetrazatricyclo[7.4.0.0^2,6]trideca-1(9),3,5-trien-7-yl]-N,2-dimethyl-pyrazole-3-carboxamide] as the molecule, how does the EC50 read?
**A.** The EC50 was less than 50 nM.

**Q.** For `CC(C)Cc1cnn2c3c(c(=O)n(-c4ccc5c(c4)nnn5CCO)c12)C[C@@H](C)N(C(=O)c1ccc(Br)c(C(F)(F)F)c1)C3` (stereo in doubt) [Compound 108a, rac-(11R)-12-[4-bromo-3-(trifluoromethyl)benzoyl]-7-[1-(2-hydroxyethyl)benzotriazol-5-yl]-5-isobutyl-11-methyl-2,3,7,12-tetrazatricyclo[7.4.0.0^2,6]trideca-1(9),3,5-trien-8-one], which EC50 is on record?
**A.** Its EC50 is less than 50 nM.

**Q.** With `CC(C)Cc1cnn2c3c(c(=O)n(-c4ccc(-c5n[nH]c(=O)n5C)cc4)c12)C[C@H](C)N(C(=O)c1ccc(Br)c(C(F)(F)F)c1)C3` (stereo in doubt) [Compound 81b, rac-(11S)-12-[4-bromo-3-(trifluoromethyl)benzoyl]-5-isobutyl-11-methyl-7-[4-(4-methyl-5-oxo-1H-1,2,4-triazol-3-yl)phenyl]-2,3,7,12-tetrazatricyclo[7.4.0.0^2,6]trideca-1(9),3,5-trien-8-one] as the molecule, how does the EC50 read?
**A.** The EC50 was 50 to 500 nM.

**Q.** How did the EC50 turn out when `Cc1ccnn1-c1ccc(-n2c(=O)c3c(n4ncc(Cc5ccccc5)c24)CN(C(=O)c2ccc(Br)c(Cl)c2)CC3)cc1` [Compound 12, 5-benzyl-12-(4-bromo-3-chloro-benzoyl)-7-[4-(5-methylpyrazol-1-yl)phenyl]-2,3,7,12-tetrazatricyclo[7.4.0.0^2,6]trideca-1(9),3,5-trien-8-one] was run?
**A.** Its EC50 is less than 50 nM.

**Q.** `CC(C)Cc1cnn2c3c(c(=O)n(-c4ccc5c(c4)ncn5C)c12)C[C@H](C)N(C(=O)c1ccc(Br)c(C(F)(F)F)c1)C3` (stereo in doubt) [Compound 86b, rac-(11S)-12-[4-bromo-3-(trifluoromethyl)benzoyl]-5-isobutyl-11-methyl-7-(1-methylbenzimidazol-5-yl)-2,3,7,12-tetrazatricyclo[7.4.0.0^2,6]trideca-1(9),3,5-trien-8-one] was tested. Which EC50 did it give?
**A.** Its EC50 is 50 to 500 nM.

**Q.** With `Cn1cnnc1-c1ccc(-n2c(=O)c3c(n4ncc(Cc5ccccc5)c24)CN(C(=O)c2ccc(Br)c(C(F)(F)F)c2)CC3)cc1` [Compound 25, 5-benzyl-12-[4-bromo-3-(trifluoromethyl)benzoyl]-7-[4-(4-methyl-1,2,4-triazol-3-yl)phenyl]-2,3,7,12-tetrazatricyclo[7.4.0.0^2,6]trideca-1(9),3,5-trien-8-one] as the molecule, how does the EC50 read?
**A.** Its EC50 is less than 50 nM.

**Q.** `C[C@@H]1Cc2c(n3ncc(Cc4ccccc4)c3n(-c3ccc(-c4n[nH]c(=O)n4C)cc3)c2=O)CN1C(=O)c1ccc(Br)c(C(F)(F)F)c1` (stereo in doubt) [Compound 58a, rac-(11R)-5-benzyl-12-[4-bromo-3-(trifluoromethyl)benzoyl]-11-methyl-7-[4-(4-methyl-5-oxo-1H-1,2,4-triazol-3-yl)phenyl]-2,3,7,12-tetrazatricyclo[7.4.0.0^2,6]trideca-1(9),3,5-trien-8-one] was tested. Which EC50 did it give?
**A.** The EC50 was less than 50 nM.
